We go through one compound from ChEMBL document CHEMBL1150885, “Antibacterial activity of lonchocarpol A” (J Nat Prod, 1998).

Data set [1] is described as follows: Toxicity in defibrinated sheep RBC assessed as minimum lytic concentration causing hemolysis after 2 hrs by liquid microtiter assay. Conditions: erythrocyte. The class given is cell-based, Ovis aries.
The test system of data set [2] is L1210. In words: Cytotoxicity against mouse L1210 cells by MTT assay. The class given is functional, cell-based.
Data set [3] deals with Staphylococcus aureus. In words: Antibacterial activity against methicillin-resistant Staphylococcus aureus after 24 hrs by broth microtiter susceptibility assay in absence of mouse plasma. The class given is functional.
In data set [4] the test system is Enterococcus faecium. In words: Antibacterial activity against vancomycin-resistant Enterococcus faecium after 24 hrs by broth microtiter susceptibility assay in absence of mouse plasma. Format: functional.
The subject of data set [5] is Mycolicibacterium smegmatis. In words: Antibacterial activity against Mycobacterium smegmatis after 24 hrs by broth microtiter susceptibility assay in absence of mouse plasma. The class given is functional.
For data set [6], the system named is Staphylococcus aureus. In words: Antibacterial activity against methicillin-resistant Staphylococcus aureus after 24 hrs by broth microtiter susceptibility assay in presence of mouse plasma. The class given is functional.
The test system of data set [7] is Priestia megaterium. In words: Antibacterial activity against Bacillus megaterium Mb 410 after 24 hrs by broth microtiter susceptibility assay in absence of mouse plasma. The class given is functional.
Data set [8] deals with Priestia megaterium. In words: Inhibition of RNA synthesis in Bacillus megaterium Mb 410 assessed as [5,6-3H]uracil incorporation by scintillation counting. The class given is functional, organism-based.
For data set [9], the system named is L1210. In words: Cytotoxicity against mouse L1210 cells after 24 hrs by trypan blue assay. The class given is functional, cell-based. Conditions: L1210, 24 h.
In data set [10] the test system is Enterococcus faecium. In words: Antibacterial activity against vancomycin-resistant Enterococcus faecium after 24 hrs by broth microtiter susceptibility assay in presence of mouse plasma. Format: functional.
For data set [11], the system named is Priestia megaterium. In words: Inhibition of cell wall synthesis in Bacillus megaterium Mb 410 assessed as [2,6-3H]diaminopimelic incorporation by scintillation counting. Format: functional, organism-based.
The test system of data set [12] is Priestia megaterium. In words: Inhibition of DNA synthesis in Bacillus megaterium Mb 410 assessed as [6-3H]thymidine incorporation by scintillation counting. The class given is functional, organism-based.
Data set [13] deals with Mycolicibacterium smegmatis. In words: Antibacterial activity against Mycobacterium smegmatis after 24 hrs by broth microtiter susceptibility assay in presence of mouse plasma. Format: functional.
The test system of data set [14] is Priestia megaterium. In words: Inhibition of protein synthesis in Bacillus megaterium Mb 410 assessed as L-[4,5-3H]leucine incorporation by scintillation counting. Format: functional, organism-based.

Each structure is given as a SMILES string. ≈ marks a conversion by molar mass, not a printed value.

In the case of `CC(C)=CCc1c(O)c(CC=C(C)C)c2c(c1O)C(=O)C[C@@H](c1ccc(O)cc1)O2` [LONCHOCARPOL A], the Activity entry in [1] was “>= 100 ug ml-1”. Further, the 50% inhibitory concentration (IC50) in [2] is more than 10 µg/mL; in [8], 1.9 µg/mL (≈ 4.65 µM); in [9], 10 µg/mL (≈ 24.5 µM); in data set [11], 1.9 µg/mL (≈ 4.65 µM); in [12], 3.9 µg/mL (≈ 9.55 µM); in data set [14] it was 2.5 µg/mL (≈ 6.12 µM). Also, the minimum inhibitory concentration (MIC) in data set [3] is 0.78 µg/mL (≈ 1.91 µM); in data set [4], 0.78 µg/mL (≈ 1.91 µM); in data set [5], more than 100 µg/mL; in [6], not below 100 µg/mL; in [7], 1 µg/mL (≈ 2.45 µM); in [10], not below 100 µg/mL. In addition, the minimum inhibitory concentration (MIC) in data set [13] was not below 100 µg/mL.
